# Source: ChEMBL document CHEMBL1128138, “The synthesis, and dopamine D2 and serotonin 5-HT3 receptor affinity of 3-aza analogues (pyridyl) of 4-amino-5-chloro-2-methoxybenzamides” (Bioorg Med Chem Lett, 1995)
# What was measured:
# [1] = biological target: D(2) dopamine receptor (Homo sapiens, UniProt P14416); test: Binding affinity towards dopamine D2 receptor
# [2] = system: Rattus norvegicus; test: Ability to inhibit the Bezold-Jarisch reflex by i.v. administration; type: functional; conditions: iv, read-out: ID50 (the source's name)
# Chain of D(2) dopamine receptor (P14416 whole entry): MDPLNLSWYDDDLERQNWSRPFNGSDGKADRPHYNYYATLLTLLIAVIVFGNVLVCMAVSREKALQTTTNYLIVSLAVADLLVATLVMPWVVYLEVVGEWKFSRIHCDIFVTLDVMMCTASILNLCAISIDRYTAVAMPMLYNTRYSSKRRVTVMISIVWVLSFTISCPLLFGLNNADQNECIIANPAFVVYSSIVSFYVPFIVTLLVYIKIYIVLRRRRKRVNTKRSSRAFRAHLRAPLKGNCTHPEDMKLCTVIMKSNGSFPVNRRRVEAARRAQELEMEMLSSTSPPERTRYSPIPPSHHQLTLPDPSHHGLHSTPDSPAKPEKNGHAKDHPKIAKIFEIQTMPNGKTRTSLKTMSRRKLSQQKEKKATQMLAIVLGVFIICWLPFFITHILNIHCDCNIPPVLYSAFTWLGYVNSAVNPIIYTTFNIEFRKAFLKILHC
SMILES,Ki [1],ED50 [2]
COc1cc(N)c(Cl)cc1C(=O)NC1CC2CCCC(C1)N2Cc1ccccc1 (centres undefined),0.251 nM,–
COc1nc(N)c(Cl)cc1C(=O)NC1CC2CCCC(C1)N2Cc1ccccc1 (centres undefined),1.26 nM,–
COc1cc(N)c(Cl)cc1C(=O)NC1CC2CCC(C1)N2C (centres undefined),–,0.8 µg/kg
COc1cc(N)c(Cl)cc1C(=O)NC1CC2CCCC(C1)N2C (centres undefined),–,0.4 µg/kg
